From EP0385952A2, “Use of a naphthalenmethanamino derivative as antiinflammatory agent and pharmaceutical compositions containing it” (SANDOZ AG, priority 1989, dated 1990)
Like-named read-outs stand apart in the source and are kept apart here. Marks after values point to notes of the source that are not given here.

What was measured:
mast cells = assay: Polymyxin-stimulated release from mast cells; type: cell-based; conditions: Mast cell
[1] = tested on: human cell line Mono-Mac-6; assay: LPS-induced NAP1/IL-8, αTNF- and IL-1β-mRNA accumulation (RNA blotting); type: cell-based
Procedure: Human Mono-Mac-6 cells, which have many of the phenotypic and functional characteristics of mature peripheral blood monocytes [H. Ziegler et al, Int. J. Cancer 41 (1988) 456-461] are grown up to 10⁶ cells/ml im RPMI 1640 medium supplemented with 10 % FCS, 1 % pen/strep and 0.25 % amphotericin. In each of 6 activation experiments 10⁷ cells are incubated for 4 hours at 37°C and 5 % CO₂. LPS is used in a concentration of 1 µg/ml and the test substance in concentrations of 10⁻⁵ M to 10⁻⁷ M.
After induction times the cells are pelleted [5 min, 1200 rpm, room temperature]. Total cellular RNA is extracted from the pelleted cells using the guanidinium isothiocyanate/cesium chloride method of J.M. Chirgwin et al., Biochemistry 18 (1979) 5294-5299. 10 µg samples of the extracted RNA are size-fractionated by 1.2 % formaldehyde agarose gel electrophoresis [T. Maniatis et al., Molecular Cloning: A Laboratory Manual, Cold Spring Harbour, New York (1982) p. 187-206], transferred to synthetic membranes (Hybond N, Amersham) with 20xSSC (1xSSC is 150 mM NaCl, 15 mM sodium citrate, pH 7.0) overnight. The filters are baked for 2 hours at 65°C and prehybridized for 4 hours at 65°C in 5xSSC, 10x Denhardt's solution (1x Denhardt's solution is 0.02 % bovine serum albumin, 0.02 % polyvinyl pyrrolidone, 0.02 % ficoll), 10 % dextrane sulphate, 20 mM sodium phosphate pH 7.0, 7 % SDS, 100 µg/ml sonicated salmon sperm DNA, and 100 µg/ml polyA. ³²P-labelled synthetic NAP1/IL8, αTNF and IL-1β oligonucleotide probes are used as the hybridization probes. Hybridization is performed at 65°C in the pre-hybridization buffer containing the labelled probe for 16 hours. The blots are washed once in 5 % SDS, 3xSSC, 10x Denhardt's solution, 20 mM sodium phosphate pH 7.0 for 30 minutes at 65°C, and once in 1xSSC, 1 % SDS at 65°C for 30 minutes. Filters are exposed at -70°C to KODAK XAR-5 films using intensifying screens. After washing for 30 minutes in 0.1 % SDS at 65°C, blots are reused for a second hybridization with a β-actin specific oligonucleotide probe to quantitate the mRNA amounts.

5,12-lipoxygenase = 5,12-lipoxygenase inhibition (neutrophil functions); type: cell-based; conditions: read-out: IC₅₀ for 5,12-lipoxygenase
NMRI mice = assay: Allergic contact dermatitis to oxazolone (2.3.); type: in vivo; conditions: therapeutic, test concentration 3.6 %, topical twice, pinnal weight after 24 hours, 0̸ = no activity
Procedure: Skin irritation with arachidonic acid or cantharidin is often used to experimentally induce inflammation in order to evaluate the anti-inflammatory activity of a compound [see e.g. Inflammation 8 (1984) 134-135; 10 (1986) 205-214]. NMRI mice (8 animals per group) receive 10 µl of a 10 % solution of arachidonic acid [J.M. Young et al., J. Invest. Derm. 82 (1986) 367-371] in acetone or, respectively, 0.08 % cantharidin [K.E. Swingle et al., Arch. Int. Pharmacodyn. Ther. 254 (1981) 168-176] in acetone applied to the medial and lateral surface of the right external ear. […] The animals are killed 1.5 hours (arachidonic acid) or, respectively, 17 hours (cantharidin) after application of the irritant and efficacy in assessed by determination of the differences in auricular weight. […] Efficacy (%) is calculated according to the equation: [formula]
The inhibition of allergic contact dermatitis to oxazolone in mice is determined. […] 24 hours after skin testing treatment-related inhibition of contact dermatitis is assessed by pinnal weight as described above (see 2.1.1.). […]

mice = assay: Croton oil-induced pinnal swelling in mice (irritant contact dermatitis, 2.1.2.); type: in vivo; conditions: simultaneous, topical, pinnal weight after 6 hours
Procedure: Skin irritation with arachidonic acid or cantharidin is often used to experimentally induce inflammation in order to evaluate the anti-inflammatory activity of a compound [see e.g. Inflammation 8 (1984) 134-135; 10 (1986) 205-214]. NMRI mice (8 animals per group) receive 10 µl of a 10 % solution of arachidonic acid [J.M. Young et al., J. Invest. Derm. 82 (1986) 367-371] in acetone or, respectively, 0.08 % cantharidin [K.E. Swingle et al., Arch. Int. Pharmacodyn. Ther. 254 (1981) 168-176] in acetone applied to the medial and lateral surface of the right external ear. Treatment is performed either prophylactically 30 minutes before irritation (arachidonic acid) or, respectively, either simultaneously with the application of irritant solution or therapeutically 20 minutes after irritation (cantharidin), by a single epicutaneous application of the test compound dissolved in a mixture of N,N-dimethylacetamide, acetone and alcohol (2:2:4). The evaluation of the test group is effected by comparison with a control group of animals having received on the right ear lobe only the carrier substance or the irritant solution. The animals are killed 1.5 hours (arachidonic acid) or, respectively, 17 hours (cantharidin) after application of the irritant and efficacy in assessed by determination of the differences in auricular weight. Differences in weights (D) of right (involved) and left (uninvolved) pinnae of animals treated with test compound and arachidonic acid or cantharidin (T-group) are compared with differences in mice treated with arachidonic acid only or cantharidin only (C-group). Efficacy (%) is calculated according to the equation: [formula]
This model is similar to the above (see 2.1.1.). Skin inflammation is induced with 15 µl of 0.23 % croton oil in a mixture of dimethylacetamide, acetone and ethanol (2:4:4), or with 10 µl of 0.005 % TPA [12-O-tetradecanoylphorbol-13-acetate; Sigma] prepared in acetone with 0.5 % dimethylsulfoxide. Topical treatment is performed either simultaneously with the irritation (croton oil) or 20 minutes after the application (TPA). The test compound is prepared in DAE. Efficacy is assessed 6 hours after onset of irritation by determination of the auricular weight as described above.

guinea pigs = assay: UV-erythema model (2.2.); type: in vivo; conditions: therapeutic, test concentration 5.0 %, topical, erythema score
Procedure: Female guinea pigs weighing 250-300 g are used. On the day before experiment they are shorn on both flanks followed by a final dry shaving without skin irritation two hours before UV exposure. Two circular areas (10 mm diameter) on each flank are exposed 10 seconds to ultraviolet rays from […] at an intensity of 16 mW/cm² (UVA) and 500 mW/cm² (UVB). Drugs are administered topically immediately after exposure to UV light in a volume of 50 µl of 25 % ethanol and 75 %polyethylenglycol-400 to the irradiated skin areas on the right flank. Two areas on the left flank serve as vehicle control. Erythema is assessed visually 3.5 and 5.5 hours after irradiation and results expressed in scores. Changes in erythema intensity after drug administration are expressed as percentages of the scored erythema intensity in vehicle-treated areas.

[2] = tested on: Cyclooxygenase (prostaglandin synthetase); assay: Cyclooxygenase inhibition; type: biochemical; conditions: at 100 µM
[3] = remaining level, 10.0 µM, LPS 1 µg/ml, 4 hours

In the case of CN(C/C=C/c1ccc(O)cc1)Cc1cccc2ccccc12 [compound of the invention, (E)-N-methyl-N-[3-(4-hydroxyphenyl)-2-propenyl]-1-naphthalene-methanamine], the IC50 (mast cells; read-out: IC₅₀ for polymyxin-stimulated release of histamine) is reported as > 100 µM, the IC50 (mast cells; read-out: IC₅₀ for polymyxin-stimulated release of β-glucosaminidase) is reported as > 100 µM and the “concentration inhibiting lps-induced transcription of nap-1/il-8, αtnf and il-iβ” value ([1]; mono-mac 6 cell line, summary statement) is reported as “about 10 µm”. The “LPS-induced IL-1β-mRNA accumulation decreased to” value [1, 3] was 50%, the “LPS-induced NAP1/IL-8-mRNA accumulation decreased to” value [1, 3] was 20% and the “LPS-induced αTNF-mRNA accumulation decreased to” value [1, 3] was 10%. The IC50 (5,12-lipoxygenase) was 45 µM, the “Efficacy (%)” value (NMRI mice) was 42** % and the “Efficacy (%)” value (mice; test concentration 1.2 %) was 67** %. The “Efficacy (%)” value (mice; test concentration 3.6 %) was 81** %, the “Efficacy (%)” value (guinea pigs) was 27% and the “Cyclooxygenase (prostaglandin synthetase) inhibition” value [2] was “not inhibited”.
